{"source": "patent US20030129629A1", "about": "“Methods and compositions for the identification, assessment, prevention, and therapy of human cancers” (Millennium Pharmaceuticals, Inc., priority 2000, published 2003)", "system": "60 cancer cell lines (NCI 60 cancer cell line series)", "experiment": "NCI-DTP in vitro cancer screen, sulforhodamine B (SRB) growth inhibition, 48 hour exposure", "format": "cell-based, human", "description": "Cancer Cell Line Preparation. Sixty cancer cell lines were obtained from the National Cancer Institute Developmental Therapeutics Program (NCI-DTP). Procedures for growing cells and testing compounds have been described previously (Scudiero et al., Cancer Res. 1988, 48:4827-4833; Stinson et al., Anticancer Res.; Myers et al., Electrophoresis 1997, 18:647-653). Cells are plated on day 0 at a density individualized for each cell line so that they will generally be sub-confluent at the end of the assay period. On day 1, a compound is added in the format for a duplicate-well, 5-dose, ten-fold interval dose response study.\nNo-drug, no-cell and no-growth controls are included. On day 3 the cells are processed for staining with sulforhodamine B (SRB), which reflects the amount of cell mass present at the end of a 48 hour exposure to the test agent. From dose response curves based on the SRB data, various parameters can be determined. […] More precisely, the quantity used in the calculation to be described is the potency measure −log{GI50}.\nActivity database (A). […] This subset of compounds was selected from the larger 23,000 compound database available from the DTP. The compounds were selected on the basis of their known mechanism of action and chemical structure. The average potency −log{GI50} was extracted from the comma-delimited text files available through the Web at http://www.nci.nih.gov/intra/lmp/jnwbio.html. Subsequently, these −log{GI50} values were inspected manually and classified as indicating either Low, Medium or High sensitivity to each compound.", "note": "Read-outs that look alike come from different tables or passages of the source.", "data": [{"smiles": "N[C@@H](Cc1ccc(N(CCCl)CCCl)cc1)C(=O)O", "note": "[Melphalan]", "values": [{"measurement": "classification of cell line as Low(1), Medium(2), High(3) sensitivity to compound", "value": 2}, {"measurement": "classification of cell line as Low(1), Medium(2), High(3) sensitivity to compound", "setting": "Breast BT-549 CL5013", "value": 2}, {"measurement": "classification of cell line as Low(1), Medium(2), High(3) sensitivity to compound", "setting": "Breast HS-578T CL5006", "value": 2}, {"measurement": "classification of cell line as Low(1), Medium(2), High(3) sensitivity to compound", "setting": "Breast MCF7(I) CL5001", "value": 3}, {"measurement": "classification of cell line as Low(1), Medium(2), High(3) sensitivity to compound", "setting": "Breast MCF7/ADRr CL5002", "value": 2}, {"measurement": "classification of cell line as Low(1), Medium(2), High(3) sensitivity to compound", "setting": "Breast MDA-MB-231 CL5005", "value": 2}, {"measurement": "classification of cell line as Low(1), Medium(2), High(3) sensitivity to compound", "setting": "Breast MDA-MB-435 CL5011", "value": 2}, {"measurement": "classification of cell line as Low(1), Medium(2), High(3) sensitivity to compound", "setting": "Breast MDA-N CL5012", "value": 2}, {"measurement": "classification of cell line as Low(1), Medium(2), High(3) sensitivity to compound", "setting": "Breast T-47D CL5014", "value": 2}, {"measurement": "classification of cell line as Low(1), Medium(2), High(3) sensitivity to compound", "setting": "Colon COLO-250 CL4010", "value": 2}, {"measurement": "classification of cell line as Low(1), Medium(2), High(3) sensitivity to compound", "setting": "Colon HCC-2998 CL4002", "value": 2}, {"measurement": "classification of cell line as Low(1), Medium(2), High(3) sensitivity to compound", "setting": "Colon HCT-15 CL4015", "value": 2}, {"measurement": "classification of cell line as Low(1), Medium(2), High(3) sensitivity to compound", "setting": "Colon HCT-116 CL4003", "value": 2}, {"measurement": "classification of cell line as Low(1), Medium(2), High(3) sensitivity to compound", "setting": "Colon HT29(I) CL4001", "value": 1}, {"measurement": "classification of cell line as Low(1), Medium(2), High(3) sensitivity to compound", "setting": "Colon KM12 CL4017", "value": 1}, {"measurement": "classification of cell line as Low(1), Medium(2), High(3) sensitivity to compound", "setting": "Colon SW-620 CL4009", "value": 2}, {"measurement": "classification of cell line as Low(1), Medium(2), High(3) sensitivity to compound", "setting": "Leukemia CCRF-CEM(I) CL7003", "value": 3}, {"measurement": "classification of cell line as Low(1), Medium(2), High(3) sensitivity to compound", "setting": "Leukemia HL-60(I) CL7008", "value": 3}, {"measurement": "classification of cell line as Low(1), Medium(2), High(3) sensitivity to compound", "setting": "Leukemia K562(I) CL7005", "value": 2}, {"measurement": "classification of cell line as Low(1), Medium(2), High(3) sensitivity to compound", "setting": "Leukemia MOLT-4 CL7006", "value": 3}, {"measurement": "classification of cell line as Low(1), Medium(2), High(3) sensitivity to compound", "setting": "Leukemia RPMI-8226(I) CL7010", "value": 2}, {"measurement": "classification of cell line as Low(1), Medium(2), High(3) sensitivity to compound", "setting": "Leukemia SR CL7019", "value": 3}, {"measurement": "classification of cell line as Low(1), Medium(2), High(3) sensitivity to compound", "setting": "Melanoma LOX IMVI CL10001", "value": 2}, {"measurement": "classification of cell line as Low(1), Medium(2), High(3) sensitivity to compound", "setting": "Melanoma M14 CL10014", "value": 2}, {"measurement": "classification of cell line as Low(1), Medium(2), High(3) sensitivity to compound", "setting": "Melanoma MALME-3M CL10002", "value": 2}, {"measurement": "classification of cell line as Low(1), Medium(2), High(3) sensitivity to compound", "setting": "Melanoma SK-MEL-2 CL10005", "value": 2}, {"measurement": "classification of cell line as Low(1), Medium(2), High(3) sensitivity to compound", "setting": "Melanoma SK-MEL-5 CL10007", "value": 2}, {"measurement": "classification of cell line as Low(1), Medium(2), High(3) sensitivity to compound", "setting": "Melanoma SK-MEL-28 CL10008", "value": 2}, {"measurement": "classification of cell line as Low(1), Medium(2), High(3) sensitivity to compound", "setting": "Melanoma UACC-62 CL10020", "value": 3}, {"measurement": "classification of cell line as Low(1), Medium(2), High(3) sensitivity to compound", "setting": "Melanoma UACC-257 CL10021", "value": 2}, {"measurement": "classification of cell line as Low(1), Medium(2), High(3) sensitivity to compound", "setting": "NSCLC A549/ATCC CL1004", "value": 2}, {"measurement": "classification of cell line as Low(1), Medium(2), High(3) sensitivity to compound", "setting": "NSCLC EKVX CL1008", "value": 2}, {"measurement": "classification of cell line as Low(1), Medium(2), High(3) sensitivity to compound", "setting": "NSCLC HOP-62 CL1026", "value": 2}, {"measurement": "classification of cell line as Low(1), Medium(2), High(3) sensitivity to compound", "setting": "NSCLC HOP-92 CL1029", "value": 2}, {"measurement": "sensitivity classification Low(1)/Medium(2)/High(3)", "setting": "NSCLC NCI-H23(I) CL1001", "value": 2}, {"measurement": "classification of cell line as Low(1), Medium(2), High(3) sensitivity to compound", "setting": "NSCLC NCI-H226 CL1013", "value": 2}, {"measurement": "sensitivity classification Low(1)/Medium(2)/High(3)", "setting": "NSCLC NCI-H332M CL1017", "value": 1}, {"measurement": "sensitivity classification Low(1)/Medium(2)/High(3)", "setting": "NSCLC NCI-H460 CL1021", "value": 3}, {"measurement": "sensitivity classification Low(1)/Medium(2)/High(3)", "setting": "NSCLC NCI-H522 CL1003", "value": 2}, {"measurement": "sensitivity classification Low(1)/Medium(2)/High(3)", "setting": "Ovarian IGROV1 CL6010", "value": 2}, {"measurement": "sensitivity classification Low(1)/Medium(2)/High(3)", "setting": "Ovarian OVCAR-3 CL6001", "value": 2}, {"measurement": "sensitivity classification Low(1)/Medium(2)/High(3)", "setting": "Ovarian OVCAR-4 CL6002", "value": 2}, {"measurement": "sensitivity classification Low(1)/Medium(2)/High(3)", "setting": "Ovarian OVCAR-5 CL6003", "value": 2}, {"measurement": "sensitivity classification Low(1)/Medium(2)/High(3)", "setting": "Ovarian OVCAR-8 CL6005", "value": 2}, {"measurement": "sensitivity classification Low(1)/Medium(2)/High(3)", "setting": "Ovarian SK-OV-3 CL6011", "value": 2}, {"measurement": "sensitivity classification Low(1)/Medium(2)/High(3)", "setting": "Prostate DU-145 CL11003", "value": 2}, {"measurement": "sensitivity classification Low(1)/Medium(2)/High(3)", "setting": "Prostate PC-3(I) CL11001", "value": 2}, {"measurement": "sensitivity classification Low(1)/Medium(2)/High(3)", "setting": "Renal 786-0 CL9018", "value": 2}, {"measurement": "sensitivity classification Low(1)/Medium(2)/High(3)", "setting": "Renal A498 CL9013", "value": 1}, {"measurement": "sensitivity classification Low(1)/Medium(2)/High(3)", "setting": "Renal ACHN CL9023", "value": 3}, {"measurement": "sensitivity classification Low(1)/Medium(2)/High(3)", "setting": "Renal CAKI-1 CL9015", "value": 3}, {"measurement": "sensitivity classification Low(1)/Medium(2)/High(3)", "setting": "Renal RXF-393 CL9016", "value": 2}, {"measurement": "sensitivity classification Low(1)/Medium(2)/High(3)", "setting": "Renal SN12C CL9008", "value": 2}, {"measurement": "sensitivity classification Low(1)/Medium(2)/High(3)", "setting": "Renal TK10 CL9024", "value": 1}, {"measurement": "sensitivity classification Low(1)/Medium(2)/High(3)", "setting": "Renal UO-31 CL9004", "value": 2}]}]}
